The text below walks through data of patent US20160151377A1, “USE OF SIGMA RECEPTOR LIGANDS FOR THE PREVENTION AND TREATMENT OF PAIN ASSOCIATED TO INTERSTITIAL CYSTITIS/BLADDER PAIN SYNDROME (IC/BPS)” (LABORATORIOS DEL DR. ESTEVE S.A., priority 2013, published 2016).

Test [1] deals with cyclophosphamide-induced cystitis. The settings on record: cyclophosphamide 300 mg/kg i.p., WT mice. As to the method:
(§1) Testing took place during the light phase (from 9.00 h to 15.00 h).

For test [2] the test system is unchanged. It counts as in vivo, mice. On the procedure:
as §1

A further test deals with sigma receptor. The settings on record: cited from earlier work.
The subject of another test is σ1 receptors. As to conditions: cited from earlier work; for affinity for σ1 receptors relative to haloperidol: rodent brain membranes and human neuroblastoma cells.
The test system of a further test is D2 receptors. The settings on record: compared with haloperidol; cited from earlier work.
Another test has as its system sigma-1 receptors. As to conditions: both in experimental animals and human cells; cited from earlier work.

With `O=P1(N(CCCl)CCCl)NCCCO1` (stereo not shown) [cyclophosphamide], in test [1], the “pain score (pain-related behaviors)” value is on record as “maximum pain score”. Moreover, the “mechanical threshold for referred hyperalgesia” value in test [2] (cyclophosphamide 100 mg/kg i.p., WT and σ1-KO mice) is recorded as “maximum reduction in the mechanical threshold”.
`CN1CC[C@]23c4c5ccc(O)c4O[C@H]2[C@@H](O)C=C[C@H]3[C@H]1C5.Cl` [morphine, Morphine hydrochloride]: in test [2] (mouse, in vivo), the “50% mechanical threshold, referred mechanical hyperalgesia” value is on record as “increase the mechanical threshold to above the control value”.
As for `CC(C)=CCN1CCC2(C)c3cc(O)ccc3CC1C2C` (stereo not shown) [pentazocine], the “affinity of sigma receptors for analgesics” value with sigma receptor is listed as “very high affinity”.
For `OC1(c2ccc(Cl)cc2)CCNCC1` [metabolite I, 4-(4-chlorophenyl)-4-hydroxypiperidine], the “affinity for σ1 receptors relative to haloperidol” value in the test with σ1 receptors is “less affinity than haloperidol”. In addition, in the test on D2 receptors, the “affinity for D2 receptors” value is reported as “no affinity”.
Regarding `OC(CCCN1CCC(O)(c2ccc(Cl)cc2)CC1)c1ccc(F)cc1` (stereo not shown) [metabolite II, 4-(4-chlorophenyl)-[…]-(4-fluorophenyl)-4-hydroxy-1-piperidinebutanol], in the test on σ1 receptors, the “affinity for sigma-1 receptors” value was “high affinity (in the low nanomolar range)” and the “affinity for σ1 receptors relative to haloperidol” value was “less affinity than haloperidol”. Further, in the test with D2 receptors, the “affinity for D2 receptors” value was “much lower”. Besides, in the test with sigma-1 receptors, the “blockade of sigma-1 receptors” value is “irreversible blockade”.
